The text below walks through data of US8071810B2, “C5a receptor antagonists” (Jerini AG, priority 2005, dated 2011).

Each structure is given as a SMILES string. In brackets after ≈: the same amount, converted by molar mass. Several values for one entry are separate records, joined by “and”; a condition that tells them apart may be missing. Equal entries are not always repeated. Where two headings read alike, the source gives them in different places.

The target of data set [1] is T1, C5a receptor (Homo sapiens, UniProt P21730).
T1 sequence (P21730 1-350): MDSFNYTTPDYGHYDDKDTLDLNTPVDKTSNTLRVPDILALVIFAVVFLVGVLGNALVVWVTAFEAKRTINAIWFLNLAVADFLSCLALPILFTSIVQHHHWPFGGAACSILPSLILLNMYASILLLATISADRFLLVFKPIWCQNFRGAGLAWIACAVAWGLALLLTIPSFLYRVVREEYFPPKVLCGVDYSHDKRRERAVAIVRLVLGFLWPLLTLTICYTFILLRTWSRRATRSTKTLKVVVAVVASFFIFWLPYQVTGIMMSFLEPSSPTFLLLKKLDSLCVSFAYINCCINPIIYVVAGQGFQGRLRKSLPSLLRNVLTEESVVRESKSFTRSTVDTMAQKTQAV
Conditions: cited from earlier work.

Data set [2] deals with T2, human C5a receptor (CD88) (Homo sapiens, UniProt P21730).
T2 construct: expressed in transfected cells; host or cells: rat basophilic leukemia (RBL) cells, stably transfected
T2 sequence (P21730 1-350): T1 sequence (P21730 1-350)
Put plainly: C5a induced enzyme (glucosaminidase) release assay in RBL cells expressing the human C5a receptor (Example 28). In kind it is cell-based. Conditions: for IC50: RBL cells with human C5aR. Put shortly:
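Rat basophilic leukemia (RBL) cells expressing human C5a receptor, at 2×10^6 cells/ml, primed with cytochalasin B, then incubated with test compound 10 min at 37 °C.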

Data set [3] is described as follows: Stability (shelf life) as solid TFA salt, RP-HPLC (Example 25). In kind it is physicochemical. The note with it: light, room temperature, up to 7 days. As for the experimental part: The fractions containing the desired compound are lyophilized. In this way 1-40 mg of the compounds 11 and 13 are isolated as solid. Due to the basic amino groups the compounds are obtained as TFA salts. 0.5-10 mg of the solid are stored under the influence of light at room temperature to determine their stability over time.
The conditions were as follows:
FIG. 1 A): after purification via HPLC (solution in MeCN/H2O/TFA),
FIG. 1 B) after lyophilization (0 days of storage as solid)
FIG. 1 C) after 7 days of storage as solid

Data set [4] in a line: Solubility in aqueous HEPES buffer by HPLC (Example 33). Conditions: kinetic from dmso stock. In kind it is physicochemical. As for the experimental part:
To determine the solubility the compound to be measured is dissolved (e.g, […] of a 5 mM solution in DMSO) in organic solvent (e.g. 198 μl DMSO) as well as in aqueous buffer solution (e.g. 198 μl HEPES buffer). Both solutions are analyzed via analytical HPLC and the areas under the peaks are compared. The value for the organic solution is taken as 100%.

The target of data set [5] is T2, human C5a receptor (CD88). The data set is described as follows: Agonism in enzyme release assay without C5a stimulus (Example 32). In kind it is cell-based. The note with it: concentration applied 7.1 μM. As for the experimental part: The assay has been described by Köhl (Köhl 1997 The Anaphylatoxins. In: Dodds, A. W., Sim, R. B. (Eds.), Complement: A Practical Approach. Oxford: 135). Basophile leukemia cells from rats (RBL), which express the human C5a receptor (CD88), are cultivated in DMEM with 10% fetal calf serum, 100 U/ml penicillin, 100 μg/ml streptomycin and 2 mM glutamin (all constituents are from Biochrome, Berlin) at 37° C. and with 10% CO2 until a confluent layer is obtained. All following details refer to a tissue culture flask with 75 cm^2 surface. The used up medium is removed. The cells are washed with 10 ml PBS (Dulbecco's PBS, Biochrome) and then covered with 3 ml cell dissociation solution (CDS, Sigma). The cells are incubated for 1 minute at room temperature. Then the CDS is removed and the cells are incubated for further 10-15 minutes at 37° C. to detach the cells completely from the flask. 20 μl solution of the compound to be testet are used in the assay. The assay solution must not contain more than 2.8% DMSO. The dilution series are prepared in ⅓ or ½ steps. To the 20 μl of the compound solutions 75 μl RBL cells are added which are prepared as follows: After the detachment of the cells from the flask surface they are taken up with 10 ml HAG-CM (20 mM HEPES; 125 mM NaCl, 5 mM KCl, 1 mM CaCl2, 1 mM MgCl2, 0.5 mM glucose, 0.25% BSA. HEPES preparation: 2.3 g/l HEPES salt+2.66 g/l HEPES acid) thermostated at 37° C. The cells are counted and centrifuged (200 g, 10 min). The cell pellet is taken up with pre-heated HAG-CM, and the cell density is adjusted to 2×10^6 Zellen/ml. The cells are incubated for 5 minutes at 37° C. 2.7 μl of a cytochalasin B solution (1000 μg/ml in DMSO, Sigma) are added per ml cell suspension. The Zellen are incubated for another 3 min at 37° C. Then, 75 μl of the cell suspension are added to the 20 μl solution containing the compounds to be tested. Thus a volume of […] per well is obtained. The cells are again incubated for 10 minutes at 37° C. Then 10 μl hrC5a (10.5 nM in HAG-CM, Sigma) are added per well, which is followed by 5 minutes incubation at 37° C. After this the plates are put on ice and centrifuged for 3 minutes at 1200×g and 4° C. 75 μl of the supernatant are added to 100 μl substrate solution (2.7 mg/ml p-nitrophenyl-N-acetyl-b-D-glucosaminide (Sigma) in 42.5 mM sodium acetate, pH 4.5). The plate is incubated for 1 hour at 37° C. Per well 75 μl 0.4 M glycine (pH 10.4) are added. After this the plate can be measured at a wave length of 405 nm. The IC50 value is determined by solving the four parameter equation y=((A−D)/(1+(x/C)^B))+D.
The only difference is the fact that 30 μl of the substance to be tested are mixed with 75 μl of the cell suspension described in example 28. The cells are not pre-incubated and no C5a is added to stimulate enzyme release.

In data set [6] the target is T1, C5a receptor. Put plainly: Binding of 125I-C5a to human C5aR transfected HEK293 cells (Example 27). On the set-up: expressed in transfected cells; host or cells: HEK293 cells. The note with it: 125I-C5a tracer, read-out: IC50 for the inhibition of the binding of C5a to the C5a receptor. As for the experimental part: The binding studies are done as determination of IC50 values with radioactively labeled C5a (125I) as tracer. For this purpose, human C5aR transfected HEK293 cells are adjusted to a concentration of […]. 30 μl of the cell suspension are added into a microtiter plate. Then the C5a receptor antagonists are added followed by 10 minutes pre-incubation at room temperature. After that, 10 μl of labelled C5a are added (15.000 cpm). The mixture is now incubated over ice for 30 minutes. After this the cells are isolated by means of a filter plate (Millipore MHVB 4510) and washed two times with 100 μl HAG-CM each (see example 32). The cells are dried and, after transferring the filter plate onto the adapter plate (Canberra 6005178), 50 μl/well Microscint 0 are added and the plate is measured in the scintillation counter.

Data set [7] can be described thus: AB permeability in TC-7 cell based assay (Example 34). In kind it is in vitro ADME. Conditions: human, Caco-2, TC-7 cells, apical pH 6.5 / basolateral pH 7.4, 120 min. As for the experimental part:
Compounds to be tested are prepared at a concentration of 50 μM in HBSS-MES (5 mM, pH 6.5) (from a 10 mM stock solution in 100% DMSO). ^14C-mannitol (about 4 μM) is added and the solution is mixed and centrifuged. The supernatant is added to the apical side of a TC-7 cell culture (passage 15, in 24 well transwell plate) to obtain a DMSO concentration of 1%. At the basolateral side HBSS-HEPES (5 mM, pH 7.4) is placed. Subsequently, the cells are incubated for 120 minutes at 37° C. The integrity of the TC-7 cell layer is checked by means of the added mannitol (Papp <2.5 10^−6 cm/s). The Permeabilität Papp [cm/s] is equal to (VR×CR120)/(Δt×A×(CD,mid−CR,mid)). VR is the volume of the receiver chamber, CR120 the concentration the test compound in the receiver chamber after 120 minutes, Δt the incubation time, A the area of the TC-7 cell layer, CD,mid the midpoint concentration of the test substance in the donor chamber and CR,mid the concentration of the test compound in the receiver chamber.
In general terms: Passage across Caco-2 layers is used to estimate intestinal permeability.

For data set [8], the system named is E. coli induced oxidative burst in human whole blood. Put plainly: E. coli induced oxidative burst in human whole blood (Phagoburst kit, Example 26). In kind it is cell-based. The note with it: read-out: IC50 for the inhibition of the E. coli induced oxidative burst in human whole blood. The protocol:
The whole blood assay is carried out according to the instructions from the Phagoburst-Kit (Orpegen Pharma). 50 μg/ml of Refludan is used to inhibit blood clotting (Mollnes et al. 2002 Blood 100: 1869). Freshly drawn, anticoagulated blood is cooled over ice and 100 μl thereof are added to 10 μl of the compound solution containing at most 1.3% of DMSO. The mixture is incubated for 10 minutes at 37° C. After this the samples are put on ice again and 20 μl of opsonisated E. coli suspension (10^9 cells/ml) is added followed by 10 minutes of incubation at 37° C. 20 μl of the substrate are added to the cells followed by another 10 minutes of incubation at 37° C. After this 2 ml of lysis buffer are added to the cells, which are then kept at room temperature for 20 minutes. The cellular components are separated by centrifugation at 250×g for 5 minutes. The supernatant is discarded and 3 ml of washing solution are added to the pellet. The cells are centrifuged again and the resulting pellet is taken up in 200 μl DNA staining solution. The neutrophiles are analysed by means of a FACS device (FACSCalibur, Becton-Dickinson) according to the parameters given in the manual. […] It can be seen that, due to the determined activity, the compounds of this invention are suited to be used as therapeutics in human.

The mark [9] stands for this setting: read-out: IC50 for the inhibition of C5a induced enzyme release.
[10] abbreviates: inhibition of C5a induced enzyme release, read-out: Activity-range (antagonistic activity, IC50 enzyme release).
Where [11] appears, read: ratio of enzyme release IC50 values.

As to `Cc1ccccc1C1c2ccccc2CCN1CC(=O)N(Cc1cccc(O)c1)C1Cc2ccccc2C1` (stereo not shown) [Compound 9, N-(3-Hydroxy-benzyl)-N-indane-2-yl-2-(1-o-tolyl-3,4-dihydro-1H-isochinolin-2-yl)-acetamide, reference compound], on C5a receptor [1], the “activity, inhibition of C5a induced calcium mobilization” value is recorded as 24 nM. In addition, in data set [2] (setting [9]), the IC50 is 7150 nM and 7140 nM.
Turning to `CN(CC(=O)N(Cc1ccccc1F)C1Cc2ccccc2C1)C(c1ccccc1)c1ccccc1` [Compound 10, 2-(Benzhydryl-methyl-amino)-N-(2-fluoro-benzyl)-N-indane-2-yl-acetamide, reference compound], on C5a receptor [1], the “activity, inhibition of C5a induced calcium mobilization” value is on record as 465 nM. Moreover, the IC50 in data set [2] (setting [9]) was above 4760 nM; in data set [2] (setting [10]) it was above 5000 nM.
For the compound `CCc1c(N)cc(Cl)c(CC)c1NC(=O)N(Cc1ccc(OC)cc1)c1ccc(C(C)C)cc1` [compound 13], in data set [3], the “Stability on storage as solid” value was “does not show such instabilities”.
In data set [4], `CCc1c(N)cc(Cl)c(CC)c1NC(=O)N(Cc1ccc(OC)cc1)c1ccc(C(C)C)cc1` [compound 31, 3-(3-amino-5-chloro-2,6-diethyl-phenyl)-1-(4-isopropyl-phenyl)-1-(4-methoxy-benzyl)-urea] displayed a solubility of 2 µM (≈ 0.96 µg/mL). Moreover, the IC50 in data set [2] (setting [9]) was 164 nM. Besides, the “Increase of the antagonistic activity by a factor (vs compound 24, NH2 group introduced)” value in data set [2] (setting [11]) is given as 6.4. In addition, the “Agonism (% of the maximum enzyme release induced by C5a)” value in data set [5] is listed as 0.12%.
Consider `CCc1c(N)cc(Cl)c(CC)c1NC(=O)N(c1ccc(C(C)C)cc1)C1CCc2cc(Cl)ccc21` (stereo not shown) [compound 88, 3-(3-amino-5-chloro-2,6-diethyl-phenyl)-1-(5-chloro-indane-1-yl)-1-(4-isopropyl-phenyl)-urea], for which the IC50 is 44 nM at C5a receptor [6] and 60 to 200 nM in data set [2] (setting [10]).
Turning to `CCc1c(N)cc(Cl)c(CC)c1NC(=O)N(c1ccc(OC)cc1F)[C@@H](C)c1ccc(Cl)cc1` [compound 102, (S)-3-(3-amino-5-chloro-2,6-diethyl-phenyl)-1-[1-(4-chloro-phenyl)-ethyl]-1-(2-fluoro-4-methoxy-phenyl)-urea], the Papp A→B at 120 min, 50 μM in data set [7] stood at 1.1 ×10⁻⁶ cm/s. For the same compound, in data set [8], the IC50 stood at 3200 nM. Moreover, in data set [5], the “Agonism (% of the maximum enzyme release induced by C5a)” value was determined as 0.00%.
Consider `CCc1c(N)cc(Cl)c(CC)c1NC(=O)N(Cc1ccc(Cl)cc1)c1ccc(NC)cc1` [compound 120, 3-(3-amino-5-chloro-2,6-diethyl-phenyl)-1-(4-chloro-benzyl)-1-(4-methylamino-phenyl)-urea], for which the IC50 was determined as 86.5 nM on C5a receptor [6] and 1900 nM in data set [8]. In data set [2] (setting [11]), the “Improvement of the antagonistic activity by a factor (vs compound 98, CH2 exchanged by NH)” value worked out at 4.5.
Turning to `CCc1c(N)cc(Cl)c(CC)c1NC(=O)N(Cc1ccc(Cl)cc1)c1ccc(OC)c2cccnc12` [compound 125, 3-(3-amino-5-chloro-2,6-diethyl-phenyl)-1-(4-chloro-benzyl)-1-(5-methoxy-chinolin-8-yl)-urea], the Papp A→B at 120 min, 50 μM in data set [7] was determined as 2.9 ×10⁻⁶ cm/s. Also, the solubility in data set [4] turned out to be 4 µM (≈ 2.09 µg/mL). Also, in data set [2] (setting [10]), the IC50 lay in the range of 60 to 200 nM. In addition, the “Agonism (% of the maximum enzyme release induced by C5a)” value in data set [5] is reported as 0.00%.
For `CCc1c(N)cc(Cl)c(CC)c1NC(=O)N(c1ccc(NC)cc1)[C@@H](C)c1ccccc1` [compound 132, (S)-3-(3-amino-5-chloro-2,6-diethyl-phenyl)-1-(4-methylamino-phenyl)-1-(1-phenyl-ethyl)-urea], the IC50 was 43.4 nM on C5a receptor [6], 620 nM in data set [8] and below 60 nM in data set [2] (setting [10]).

For orientation: IC50 means the point on the concentration scale where inhibition reaches its midpoint. A word on the solubility: it is how much of the substance goes into solution per volume. A high value points to a readily soluble substance. Usually Papp A→B stands for how fast a substance crosses the layer from the apical side.
